Test results reported in ChEMBL document CHEMBL1201862, “PubChem BioAssay data set” (2004).
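1) Cells in 96-well plates. 2) Compound, 48 h, 5 concentrations. 3) Linear interpolation between surrounding doses. 4) Unreached endpoint = highest concentration. The concentration for 50% growth inhibition is given as GI50.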 Active and inactive are the calls of the source. Rule as the data show it: active = GI50 up to about 1.1 µM and inactive = higher.

What was measured:
Assay in all cases: NCI anticancer screen, dose series, 48 h
SF-539 = system: SF-539
ACHN = system: ACHN
NCI/ADR-RES = system: NCI/ADR-RES
RPMI-8226 = system: RPMI-8226
MDA-MB-231 = system: MDA-MB-231
IGROV-1 = system: IGROV-1
SN12C = system: SN12C
UO-31 = system: UO-31
SW-620 = system: SW-620
OVCAR-8 = system: OVCAR-8
OVCAR-3 = system: OVCAR-3
SK-MEL-28 = system: SK-MEL-28
MDA-MB-435 = system: MDA-MB-435
NCI-H460 = system: NCI-H460
HCT-116 = system: HCT-116
T47D = system: T47D
SF-268 = system: SF-268
A498 = system: A498
HCC 2998 = system: HCC 2998
HOP-92 = system: HOP-92
UACC-257 = system: UACC-257
HT-29 = system: HT-29
UACC-62 = system: UACC-62
BT-549 = system: BT-549
MOLT-4 = system: MOLT-4
MDA-N = system: MDA-N
K562 = system: K562
NCI-H23 = system: NCI-H23
COLO 205 = system: COLO 205
OVCAR-5 = system: OVCAR-5
TK-10 = system: TK-10
EKVX = system: EKVX
U-251 = system: U-251
SF-295 = system: SF-295
SNB-19 = system: SNB-19
SNB-75 = system: SNB-75
MCF7 = system: MCF7
SK-MEL-5 = system: SK-MEL-5
SK-MEL-2 = system: SK-MEL-2
Malme-3M = system: Malme-3M
Hs-578T = system: Hs-578T
LOX IMVI = system: LOX IMVI
DU-145 = system: DU-145
RXF 393 = system: RXF 393
NCI-H522 = system: NCI-H522
CAKI-1 = system: CAKI-1
KM12 = system: KM12
HCT-15 = system: HCT-15
HOP-62 = system: HOP-62
HL-60 = system: HL-60
PC-3 = system: PC-3
M14 = system: M14
SR = system: SR
786-0 = system: 786-0
A549 = system: A549
NCI-H226 = system: NCI-H226
CCRF-CEM = system: CCRF-CEM
OVCAR-4 = system: OVCAR-4
SK-OV-3 = system: SK-OV-3

## CN(C)c1cc2ccccc2oc1=O
SF-539
  GI50: > 100 µM (inactive)
ACHN
  GI50: > 100 µM (inactive)
NCI/ADR-RES
  GI50: > 100 µM (inactive)
RPMI-8226
  GI50: > 100 µM (inactive)
MDA-MB-231
  GI50: > 100 µM (inactive)
IGROV-1
  GI50: > 100 µM (inactive)
SN12C
  GI50: > 100 µM (inactive)
UO-31
  GI50: > 100 µM (inactive)
SW-620
  GI50: > 100 µM (inactive)
OVCAR-8
  GI50: > 100 µM (inactive)
OVCAR-3
  GI50: > 100 µM (inactive)
SK-MEL-28
  GI50: > 100 µM (inactive)
MDA-MB-435
  GI50: > 100 µM (inactive)
NCI-H460
  GI50: > 100 µM (inactive)
HCT-116
  GI50: > 100 µM (inactive)
T47D
  GI50: > 100 µM (inactive)
SF-268
  GI50: > 100 µM (inactive)
A498
  GI50: > 100 µM (inactive)
HCC 2998
  GI50: > 100 µM (inactive)
HOP-92
  GI50: > 100 µM (inactive)
UACC-257
  GI50: > 100 µM (inactive)
HT-29
  GI50: > 100 µM (inactive)
UACC-62
  GI50: > 100 µM (inactive)
BT-549
  GI50: > 100 µM (inactive)
MOLT-4
  GI50: > 100 µM (inactive)
MDA-N
  GI50: > 100 µM (inactive)
K562
  GI50: > 100 µM (inactive)
NCI-H23
  GI50: > 100 µM (inactive)
COLO 205
  GI50: > 100 µM (inactive)
OVCAR-5
  GI50: > 100 µM (inactive)
TK-10
  GI50: > 100 µM (inactive)
EKVX
  GI50: > 100 µM (inactive)
U-251
  GI50: > 100 µM (inactive)
SF-295
  GI50: > 100 µM (inactive)
SNB-19
  GI50: > 100 µM (inactive)
SNB-75
  GI50: > 100 µM (inactive)
MCF7
  GI50: > 100 µM (inactive)
SK-MEL-5
  GI50: > 100 µM (inactive)
SK-MEL-2
  GI50: > 100 µM (inactive)
Malme-3M
  GI50: > 100 µM (inactive)
Hs-578T
  GI50: > 100 µM (inactive)
LOX IMVI
  GI50: > 100 µM (inactive)
DU-145
  GI50: > 100 µM (inactive)
RXF 393
  GI50: 20.6 µM (inactive)
NCI-H522
  GI50: > 100 µM (inactive)
CAKI-1
  GI50: > 100 µM (inactive)
KM12
  GI50: > 100 µM (inactive)
HCT-15
  GI50: > 100 µM
HOP-62
  GI50: > 100 µM (inactive)
HL-60
  GI50: > 100 µM (inactive)
PC-3
  GI50: > 100 µM (inactive)
M14
  GI50: > 100 µM (inactive)
SR
  GI50: > 100 µM (inactive)
786-0
  GI50: > 100 µM (inactive)
A549
  GI50: > 100 µM (inactive)
NCI-H226
  GI50: > 100 µM (inactive)
CCRF-CEM
  GI50: > 100 µM (inactive)
OVCAR-4
  GI50: > 100 µM (inactive)

## CCOC(=O)N/N=C(/N)c1cccc([N+](=O)[O-])c1
SF-539
  GI50: > 100 µM (inactive)
ACHN
  GI50: > 100 µM (inactive)
NCI/ADR-RES
  GI50: > 100 µM (inactive)
MDA-MB-231
  GI50: > 100 µM (inactive)
IGROV-1
  GI50: > 100 µM (inactive)
SN12C
  GI50: > 100 µM (inactive)
UO-31
  GI50: > 100 µM (inactive)
SW-620
  GI50: > 100 µM (inactive)
OVCAR-8
  GI50: > 100 µM (inactive)
OVCAR-3
  GI50: > 100 µM (inactive)
SK-MEL-28
  GI50: > 100 µM (inactive)
MDA-MB-435
  GI50: > 100 µM (inactive)
NCI-H460
  GI50: > 100 µM (inactive)
HCT-116
  GI50: > 100 µM (inactive)
T47D
  GI50: > 100 µM (inactive)
SF-268
  GI50: > 100 µM (inactive)
A498
  GI50: > 100 µM (inactive)
HCC 2998
  GI50: > 100 µM (inactive)
HOP-92
  GI50: > 100 µM (inactive)
UACC-257
  GI50: > 100 µM (inactive)
HT-29
  GI50: > 100 µM (inactive)
UACC-62
  GI50: > 100 µM (inactive)
BT-549
  GI50: > 100 µM (inactive)
MOLT-4
  GI50: > 100 µM (inactive)
MDA-N
  GI50: > 100 µM (inactive)
K562
  GI50: > 100 µM (inactive)
NCI-H23
  GI50: > 100 µM (inactive)
COLO 205
  GI50: > 100 µM (inactive)
OVCAR-5
  GI50: > 100 µM (inactive)
SK-OV-3
  GI50: > 100 µM (inactive)
TK-10
  GI50: > 100 µM (inactive)
EKVX
  GI50: > 100 µM (inactive)
U-251
  GI50: > 100 µM (inactive)
SF-295
  GI50: > 100 µM (inactive)
SNB-19
  GI50: > 100 µM (inactive)
SNB-75
  GI50: 80.2 µM (inactive)
MCF7
  GI50: > 100 µM (inactive)
SK-MEL-5
  GI50: > 100 µM (inactive)
SK-MEL-2
  GI50: > 100 µM (inactive)
Malme-3M
  GI50: > 100 µM (inactive)
Hs-578T
  GI50: > 100 µM (inactive)
LOX IMVI
  GI50: > 100 µM (inactive)
DU-145
  GI50: > 100 µM (inactive)
RXF 393
  GI50: > 100 µM (inactive)
NCI-H522
  GI50: > 100 µM (inactive)
CAKI-1
  GI50: > 100 µM (inactive)
KM12
  GI50: > 100 µM (inactive)
HCT-15
  GI50: > 100 µM
HOP-62
  GI50: > 100 µM (inactive)
HL-60
  GI50: > 100 µM (inactive)
PC-3
  GI50: > 100 µM (inactive)
M14
  GI50: > 100 µM (inactive)
SR
  GI50: > 100 µM (inactive)
786-0
  GI50: > 100 µM (inactive)
A549
  GI50: > 100 µM (inactive)
CCRF-CEM
  GI50: > 100 µM (inactive)
OVCAR-4
  GI50: > 100 µM (inactive)
